Key:
Format in all cases: biochemical
HGFA [1] = target: T1, HGFA (Homo sapiens, UniProt Q04756); assay: P4-P2 substrate specificity using HyCoSuL, HGFA; parameters: P3 Position % Activity HGFA / P2 Position % Activity HGFA: concentration or dose not given beside the values; P4 Position % Activity HGFA: tested at 100 µM; details: HyCoSuL substrate library; for P2 Position % Activity HGFA: amino acid fixed at P2 position; for P3 Position % Activity HGFA: amino acid fixed at P3 position; for P4 Position % Activity HGFA: amino acid fixed at P4 position
T1 sequence (Q04756 408-655 limits assumed): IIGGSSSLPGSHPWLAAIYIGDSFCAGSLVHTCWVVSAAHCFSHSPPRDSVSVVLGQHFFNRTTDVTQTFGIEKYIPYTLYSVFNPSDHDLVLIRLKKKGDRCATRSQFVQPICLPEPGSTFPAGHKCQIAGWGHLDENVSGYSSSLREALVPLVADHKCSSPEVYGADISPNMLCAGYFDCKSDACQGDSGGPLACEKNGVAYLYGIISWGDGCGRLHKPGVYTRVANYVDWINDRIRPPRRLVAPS
T1 sequence (Q04756 373-407 partner limits assumed): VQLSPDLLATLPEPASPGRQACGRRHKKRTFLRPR
Outline: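 HGFA at 10-20 nM, preincubated 30 min at 25 °C in Tris buffer pH 8.0 with NaCl and CaCl2, screened against P4, P3 and P2 HyCoSuL sublibraries at 100 μM. Velocities taken from linear 5-15 min fluorescence; means of ≥3 runs normalized to best amino acid (100%).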

HGFA [2] = target: T1, HGFA; assay: P1 substrate specificity using Ac-Ala-Arg-Leu-P1-ACC individual substrate library, HGFA; details: substrate 5 μM; best amino acid set to 100%
Method: HFGA enzyme was diluted in the assay buffer (0.15 M NaCl, 0.025 M Tris, 0.005 M CaCl2, pH=8.0) to the final concentration of 10-20 nM (depending of sublibrary) and incubated at 25° C. for 30 minutes before added to a substrate.
(§1) The protocol for both enzymes activation and incubation are as the same as in HyCoSuL screening. The P1 individual substrate library was used at the final concentration of 5 μM. The total time of the assay was 30 min, however only linear portions of the progress curve (5-15 minutes) were used for velocity (RFU/s) calculations. Each screening for hepsin either HGFA was repeated 3-times and the average value for each measurement was used to create the substrate specificity matrix.

hepsin [3] = target: T2, hepsin (Homo sapiens, UniProt P05981); assay: P4-P2 substrate specificity using HyCoSuL, hepsin; parameters: concentration or dose not given beside the values; details: HyCoSuL substrate library; for P2 Position % Activity Hepsin: amino acid fixed at P2 position; for P3 Position % Activity Hepsin: amino acid fixed at P3 position; for P4 Position % Activity Hepsin: amino acid fixed at P4 position
T2 construct: purchased R&D Systems 4776-SE-010

hepsin [4] = target: T2, hepsin; assay: P1 substrate specificity using Ac-Ala-Arg-Leu-P1-ACC individual substrate library, hepsin; details: substrate 5 μM; best amino acid set to 100%
Method: Recombinant human hepsin (10 μg in 20 uL, 4776-SE-010, R&D Systems) was added to the 100 μL of activation buffer (0.1 M Tris, 0.15 M NaCl, 0.01 M CaCl2, 0.05% TRITON-X, pH=8.0) and incubated at 37° C. for 24 hours (hepsin concentration in activation buffer 2 μM). Once activated hepsin was diluted in assay buffer (0.05 M Tris, pH=9.0) to the final concentration of 4 nM and incubated at 37° C. for 15 minutes before added to a substrate.
as §1

T2 sequence (P05981 163-417 limits assumed): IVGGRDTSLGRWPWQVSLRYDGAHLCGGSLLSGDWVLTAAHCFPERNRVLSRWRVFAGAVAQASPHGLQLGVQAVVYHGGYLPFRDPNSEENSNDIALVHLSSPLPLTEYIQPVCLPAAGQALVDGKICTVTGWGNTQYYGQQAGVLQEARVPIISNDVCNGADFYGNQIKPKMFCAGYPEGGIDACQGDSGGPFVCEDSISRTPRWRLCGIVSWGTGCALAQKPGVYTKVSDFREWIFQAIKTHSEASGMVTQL
T2 sequence (P05981 45-162 partner limits assumed): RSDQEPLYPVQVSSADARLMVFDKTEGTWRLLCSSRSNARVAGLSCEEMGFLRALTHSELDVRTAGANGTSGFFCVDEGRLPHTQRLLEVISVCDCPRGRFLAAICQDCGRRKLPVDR

Row | Substance | P2 Position % Activity HGFA (HGFA [1]) [%] | P3 Position % Activity HGFA (HGFA [1]) [%] | P4 Position % Activity HGFA (HGFA [1]) [%] | % activity, P1 position, HGFA (HGFA [2]) [%] | P2 Position % Activity Hepsin (hepsin [3]) [%] | P3 Position % Activity Hepsin (hepsin [3]) [%] | P4 Position % Activity Hepsin (hepsin [3]) [%] | % activity, P1 position, Hepsin (hepsin [4]) [%]
1 | D-Glu | 0.00 | 3.61 | 2.62 | 0.00 | 0.00 | 34.55 | 2.98 | 0.00
2 | D-Leu | 0.00 | 7.08 | 10.56 | 0.00 | 0.00 | 20.14 | 24.76 | 0.00
3 | D-Lys | 0.00 | 21.11 | 17.66 | 0.00 | 0.00 | 64.56 | 49.84 | 0.23
4 | D-Pro | 0.00 | 4.96 | 10.30 | 0.00 | 0.00 | 38.88 | 20.45 | 1.08
5 | D-Ser | 0.00 | 10.86 | 7.94 | 0.00 | 11.55 | 54.84 | 21.84 | 0.02
6 | D-Thr | 0.00 | 6.45 | 8.61 | 0.00 | 0.00 | 36.69 | 25.74 | 0.24
7 | D-Trp | 0.00 | 87.59 | 7.65 | 0.00 | 0.00 | 24.90 | 1.48 | 0.50
8 | D-Tyr | 0.00 | 17.32 | 10.09 | 0.00 | 0.00 | 29.94 | 12.66 | 0.23
9 | L-Cit | 6.32 | 13.41 | 6.44 | 0.00 | 32.27 | 29.53 | 36.68 | 0.42
10 | L-Dap | 1.49 | 24.27 | 13.31 | 0.00 | 10.01 | 48.71 | 35.65 | 0.03
11 | L-Hyp | 3.95 | 2.18 | 10.66 | 0.00 | 38.67 | 4.70 | 37.81 | 0.00
12 | L-Met(O) | 1.68 | 16.63 | 6.64 | 0.00 | 11.40 | 68.16 | 22.86 | 0.00
13 | L-Nle | 45.52 | 19.15 | 11.76 | 0.00 | 62.04 | 24.09 | 40.93 | 0.07
14 | L-Nva | 39.80 | 17.60 | 11.78 | 0.00 | 58.40 | 25.85 | 41.99 | 0.14
15 | L-Orn | 0.00 | 54.04 | 20.23 | 0.00 | 78.48 | 79.70 | 84.52 | 0.00
16 | L-hArg | 5.83 | 100.00 | 22.07 | 0.00 | 57.96 | 47.00 | 56.24 | 0.24

Reference: patent publication US11130780B2, “Inhibitors of growth factor activation enzymes” (Washington University, priority 2015, dated 2021)
